According to US10669269B2, “Substituted N-(1H-indazol-4-yl)imidazo[1,2-a]pyridine-3-carboxamide compounds as type III receptor tyrosine kinase inhibitors” (ARRAY BIOPHARMA INC., priority 2010, dated 2020):

How the values were obtained:
cFMS = molecular target: T1, cFMS (Homo sapiens, UniProt P07333); assay: cFMS Cell-Based Assay (Example C); settings: averaged IC50; phospho-cFMS in THP-1 cells stimulated with 250 ng/mL recombinant human MCSF; read-out: cFMS Cell ELISA IC50
T1 construct: THP-1 cells (human acute monocytic leukemia cell line) were serum-starved for 4 hours; endogenous in cells; host or cells: THP-1 cells (human acute monocytic leukemia cell line)
Outline: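 Phosphotyrosine on cFMS, captured from lysates and quantified by ELISA, reads receptor activation after 1 min of 250 ng/mL human MCSF. Beforehand, THP-1 cells were serum-starved for 4 h and exposed to compound for 1 h (9 points, 3-fold, typically up to 5,000 nM). IC50 from a 4-parameter logistic fit as 50 percent of control.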

PDGFR beta [1] = molecular target: T2, PDGFR beta (Homo sapiens, UniProt P09619); assay: Phospho PDGFR LICOR Cell Assay (Example B); type: cell-based; settings: averaged IC50; PDGFR beta phosphorylation in HS27 human fibroblast cell line, PDGF-BB stimulation 10 minutes, normalized to total ERK
T2 construct: endogenous in cells; host or cells: HS27 human fibroblast cell line
Outline: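 Read-out is in-cell phospho-PDGFRβ/total-ERK infrared immunofluorescence in HS27 fibroblasts. Cells got 1 h compound exposure before a 10 min PDGF-BB challenge. A 4-parameter logistic fit gave IC50 as the concentration yielding 50 percent of control.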

PDGFR beta [2] = molecular target: T2, PDGFR beta; assay: Phospho PDGFR Cell Assay, sandwich ELISA (Example A); type: cell-based; settings: averaged IC50, PDGFR beta phosphorylation in HS27 human fibroblast cell line, PDGF-BB stimulation 5 minutes
Outline: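 HS27 human fibroblasts were pretreated with compound for 1 h, stimulated with PDGF-BB for 5 min, then lysed. Phospho-PDGFR beta was measured by sandwich ELISA, and IC50 was taken as the concentration giving 50 percent of control from a 4-parameter logistic fit.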

c-KIT = molecular target: T3, c-KIT (Homo sapiens, UniProt P10721); assay: c-KIT Cell-Based Assay (Example D); settings: averaged IC50; phospho-c-KIT in M-07e cells stimulated with 150 ng/ml recombinant human SCF; read-out: cKIT Cell ELISA IC50
T3 construct: M-07e cells (human acute megakaryoblastic leukemia cell line) were serum-starved for 4 hours; endogenous in cells; host or cells: M-07e cells (human acute megakaryoblastic leukemia cell line)
Outline: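 Phospho-c-KIT ELISA readout, calibrated with purified phospho-SCF R, gave IC50 (4-parameter fit, 50% of control). Before lysis, M-07e cells were starved 4 h, exposed 1 h to a 9-point 3-fold series (highest usually 5,000 nM), and stimulated with 150 ng/ml SCF for 4 min.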

T2 sequence (P09619 33-1106): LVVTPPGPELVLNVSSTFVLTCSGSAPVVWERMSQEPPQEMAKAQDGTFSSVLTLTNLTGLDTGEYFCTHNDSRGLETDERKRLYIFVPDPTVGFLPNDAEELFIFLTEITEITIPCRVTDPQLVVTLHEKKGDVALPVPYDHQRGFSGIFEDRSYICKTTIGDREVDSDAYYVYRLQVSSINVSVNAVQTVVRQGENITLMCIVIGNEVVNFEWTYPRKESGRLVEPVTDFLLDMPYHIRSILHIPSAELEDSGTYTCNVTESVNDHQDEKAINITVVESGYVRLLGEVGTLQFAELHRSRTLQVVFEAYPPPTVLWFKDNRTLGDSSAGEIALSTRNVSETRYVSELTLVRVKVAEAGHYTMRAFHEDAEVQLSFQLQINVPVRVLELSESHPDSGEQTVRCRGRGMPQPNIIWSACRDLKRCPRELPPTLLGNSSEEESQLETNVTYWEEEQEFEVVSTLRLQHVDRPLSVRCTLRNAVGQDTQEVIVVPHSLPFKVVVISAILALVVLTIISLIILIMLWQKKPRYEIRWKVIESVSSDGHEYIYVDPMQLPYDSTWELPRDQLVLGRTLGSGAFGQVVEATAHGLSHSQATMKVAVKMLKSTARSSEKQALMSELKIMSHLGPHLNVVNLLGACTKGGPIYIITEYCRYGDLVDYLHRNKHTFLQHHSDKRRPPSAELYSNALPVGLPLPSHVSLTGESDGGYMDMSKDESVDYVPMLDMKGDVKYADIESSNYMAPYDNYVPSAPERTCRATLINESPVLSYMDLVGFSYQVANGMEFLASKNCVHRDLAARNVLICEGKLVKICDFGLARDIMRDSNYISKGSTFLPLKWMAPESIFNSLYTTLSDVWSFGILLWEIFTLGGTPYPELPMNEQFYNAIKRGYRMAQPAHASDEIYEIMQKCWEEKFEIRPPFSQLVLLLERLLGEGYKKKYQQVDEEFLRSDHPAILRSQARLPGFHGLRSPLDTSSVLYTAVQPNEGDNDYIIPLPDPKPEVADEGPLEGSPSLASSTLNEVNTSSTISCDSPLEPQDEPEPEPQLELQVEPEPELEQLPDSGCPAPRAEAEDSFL
T1 sequence (P07333 20-972): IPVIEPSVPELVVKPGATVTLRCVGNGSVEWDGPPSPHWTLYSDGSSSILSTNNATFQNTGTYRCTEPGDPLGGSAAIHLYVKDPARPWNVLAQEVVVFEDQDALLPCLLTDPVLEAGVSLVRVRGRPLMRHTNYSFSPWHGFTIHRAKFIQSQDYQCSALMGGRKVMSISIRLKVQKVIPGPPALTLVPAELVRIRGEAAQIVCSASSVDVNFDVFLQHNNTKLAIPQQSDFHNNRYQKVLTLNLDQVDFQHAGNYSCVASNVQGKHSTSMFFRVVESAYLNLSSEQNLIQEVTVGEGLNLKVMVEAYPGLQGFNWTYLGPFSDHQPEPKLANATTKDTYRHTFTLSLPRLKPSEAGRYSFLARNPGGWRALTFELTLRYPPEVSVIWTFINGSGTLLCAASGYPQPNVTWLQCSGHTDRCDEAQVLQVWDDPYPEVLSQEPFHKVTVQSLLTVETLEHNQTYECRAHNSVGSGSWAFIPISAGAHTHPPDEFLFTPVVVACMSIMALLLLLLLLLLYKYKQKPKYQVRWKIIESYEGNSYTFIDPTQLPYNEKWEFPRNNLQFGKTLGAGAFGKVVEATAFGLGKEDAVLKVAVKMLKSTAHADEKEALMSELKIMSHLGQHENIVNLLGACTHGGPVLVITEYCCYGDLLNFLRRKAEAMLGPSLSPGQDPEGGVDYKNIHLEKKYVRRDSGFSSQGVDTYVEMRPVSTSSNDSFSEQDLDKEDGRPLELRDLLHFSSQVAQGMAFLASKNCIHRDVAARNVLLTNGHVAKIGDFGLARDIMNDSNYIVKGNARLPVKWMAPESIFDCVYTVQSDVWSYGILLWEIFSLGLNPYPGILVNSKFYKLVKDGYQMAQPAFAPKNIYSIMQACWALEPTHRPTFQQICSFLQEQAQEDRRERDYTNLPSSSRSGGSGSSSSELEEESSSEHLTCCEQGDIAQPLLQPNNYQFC
T3 sequence (P10721 26-976): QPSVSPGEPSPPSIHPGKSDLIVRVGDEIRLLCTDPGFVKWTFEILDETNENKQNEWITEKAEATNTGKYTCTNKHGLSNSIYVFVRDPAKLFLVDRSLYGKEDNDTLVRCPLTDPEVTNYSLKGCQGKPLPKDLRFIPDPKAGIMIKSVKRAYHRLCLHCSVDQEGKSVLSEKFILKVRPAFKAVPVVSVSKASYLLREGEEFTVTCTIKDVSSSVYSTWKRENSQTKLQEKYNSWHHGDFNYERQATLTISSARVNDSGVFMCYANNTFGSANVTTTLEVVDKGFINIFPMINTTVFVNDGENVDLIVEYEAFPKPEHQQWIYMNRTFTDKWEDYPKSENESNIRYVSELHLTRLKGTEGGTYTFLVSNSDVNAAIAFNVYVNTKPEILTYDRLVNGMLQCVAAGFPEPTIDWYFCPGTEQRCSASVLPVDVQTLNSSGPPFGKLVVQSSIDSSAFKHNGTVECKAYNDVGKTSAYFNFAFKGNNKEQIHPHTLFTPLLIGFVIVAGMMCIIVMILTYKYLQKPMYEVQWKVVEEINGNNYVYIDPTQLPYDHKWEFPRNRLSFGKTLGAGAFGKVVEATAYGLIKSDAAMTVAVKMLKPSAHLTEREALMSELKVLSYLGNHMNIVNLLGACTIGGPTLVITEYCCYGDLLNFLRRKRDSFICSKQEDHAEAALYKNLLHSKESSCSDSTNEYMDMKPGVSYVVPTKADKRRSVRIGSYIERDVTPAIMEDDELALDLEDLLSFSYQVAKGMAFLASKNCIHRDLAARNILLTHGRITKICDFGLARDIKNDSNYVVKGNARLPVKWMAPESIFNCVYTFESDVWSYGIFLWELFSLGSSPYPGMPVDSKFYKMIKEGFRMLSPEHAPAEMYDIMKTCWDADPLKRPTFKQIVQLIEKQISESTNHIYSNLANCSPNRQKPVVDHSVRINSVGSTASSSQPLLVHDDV

IC50 (cFMS) [nM] | IC50 (PDGFR beta [1]) [nM] | IC50 (PDGFR beta [2]) [nM] | IC50 (c-KIT) [nM] | SMILES
15.9 | 6.5 | 74.9 | 48.5 | Cc1nn(Cc2cccc(C3CC3)n2)c2cccc(NC(=O)c3cnc4cc(OCCN5CCN(C)CC5)ccn34)c12 [Example 47, N-(1-((6-cyclopropylpyridin-2-yl)methyl)-3-methyl-1H-indazol-4-yl)-7-(2-(4-methylpiperazin-1-yl)ethoxy)imidazo[1,2-a]pyridine-3-carboxamide]
10.2 | 4.8 | 18.3 | 30.7 | Cc1nn(Cc2cccc(C(C)C)n2)c2cccc(NC(=O)c3cnc4cc(OCCN5CCN(C)CC5)ccn34)c12 [Example 66, N-(1-((6-isopropylpyridin-2-yl)methyl)-3-methyl-1H-indazol-4-yl)-7-(2-(4-methylpiperazin-1-yl)ethoxy)imidazo[1,2-a]pyridine-3-carboxamide]
4.4 | 10.9 | 22.2 | 30.1 | O=C(Nc1cccc2c1cnn2Cc1ccccc1)c1cnc2cc(OCC(O)CO)ccn12 (stereo not drawn) [Example 91, N-(1-benzyl-1H-indazol-4-yl)-7-(2,3-dihydroxypropoxy)imidazo[1,2-a]pyridine-3-carboxamide]
